Measured values published in ChEMBL document CHEMBL1157539, “Thousands of chemical starting points for antimalarial lead identification” (Nature, 2010).

System: Plasmodium falciparum
Test: GSK_TCMDC: Inhibition of Plasmodium falciparum 3D7 in whole erythrocytes, using parasite LDH activity as an index of growth.
Format: functional, organism-based
Conditions: Plasmodium falciparum, 3D7

SMILES	XC50
CCN(CC)CCN(Cc1ccc(-c2ccc(C(F)(F)F)cc2)cc1)C(=O)Cn1c(CCc2cccc(F)c2F)nc(=O)c2ccc(C(F)(F)F)cc21	783 nM
CCNC(C)(C)CN(Cc1ccc(-c2ccc(C(F)(F)F)cc2)cc1)C(=O)Cn1c(CCc2cccc(F)c2F)nc(=O)c2ccccc21	813 nM
COc1c(C2CCN(CCCCNC(=O)c3cc(-c4ccc(C#N)cc4)n[nH]3)CC2)ccc2c1CCCC2	1160 nM
CCC(C)c1ccc(O)c(NC(=O)c2cncc(Br)c2)c1 (centres undefined)	804 nM
CCC[C@@H](/C=N/N(C)C(=O)OC(C)(C)C)NC(=O)[C@H](CC(C)C)NC(=O)c1cc2cccc(OC)c2o1	1080 nM
O=C(Nc1ccc(F)cc1)NC1CCN(c2ccnc3cc(Cl)ccc23)C1 (centres undefined)	218 nM
CN(C)CCN(C)Cc1nc(-c2ccc3c(Nc4ccc(Oc5ccccc5)cc4)ccnc3c2)cs1	212 nM
CCN(CCCN1CCCCC1)c1cc(C)nc(Nc2ccc3c(c2)CCC3)n1	394 nM
CSc1ccc2nccc(Nc3ccc(Oc4ccccc4)cc3)c2c1	871 nM
Cc1cc(CNCCCCCNCc2cccc([N+](=O)[O-])c2)ccc1O	784 nM
CCCN(CC1CC1)c1nc(C)nc2c(-c3ccccc3)cc(C)cc12	1020 nM
CCN(CC)S(=O)(=O)c1ccc(C=CC(=O)Nc2cc(Cl)ccc2N2CCOCC2)cc1	920 nM
CC(C)c1nc2c(N)nc(N)nc2nc1N	1310 nM
COc1ccc2c(=NN=Cc3cccc(Cl)c3)cc(C)[nH]c2c1	732 nM
Cc1ccc2c(OCCN3CCC(Cc4ccc5c(c4)NC(=O)CO5)CC3)cc(F)cc2n1	755 nM
O=C(Nc1ccc(Cl)c(Cl)c1)Nc1ccc2nccc(N3CCN(Cc4ccccc4)CC3)c2c1	158 nM
CCOC(=O)c1nc(-c2ccc(Cl)cc2)[nH]c1NC(=S)NCCCN1CCOCC1	868 nM
Cc1ccc2c(-c3ccc([N+](=O)[O-])o3)cc(C)nc2c1	43.7 nM
Cc1cc(-c2cccc3c(C(=O)N4CCc5cc6nccc(N7CCN8CCC[C@H]8C7)c6cc54)cccc23)cc(C)n1	709 nM
Cc1nc(N)nc(N)c1CCCOc1ccccc1Br	424 nM
COc1ccc2nc(C)cc(Nc3ccc(Cl)c(Cl)c3)c2c1	441 nM
O=C(Nc1ccc(Oc2ccccc2)cc1)N1CCC(CCN2CCC(c3c[nH]c4ccccc34)CC2)CC1	795 nM
N=C(N)Nc1nc(-c2cccc(NC(=O)CCCCCCCON3C(N)=NC(N)=NC34CCCCC4)c2)cs1	43.5 nM
CCc1cccc(NC(=O)c2ccc(CN3CCCN(CC4CCCCC4)CC3)cc2)c1	402 nM
O=C(Nc1ccc(-c2cccc(-c3nc4cc(F)ccc4[nH]3)c2)cc1)Nc1ccsc1	693 nM

SMILES	XC50
Cc1ccc2nc(N/C(N)=N/C(=O)NC3CCCCC3)nc(C)c2c1	624 nM
CN(C)CCC=C1c2ccccc2Sc2c(O)cc(Cl)cc21	277 nM
Cc1cc(C(F)(F)F)n2nc(C(=O)N(Cc3cncn3Cc3ccccc3F)CC3CC3)cc2n1	956 nM
CC(=O)c1c(Cc2cccc(C(F)(F)F)c2)c[nH]c1C	346 nM
COc1ccccc1Nc1nc(C)cc(NCc2ccc(-n3ccnc3)cc2)n1	1050 nM
Cc1ccc(Nc2nc(-c3ccccn3)cs2)nc1	752 nM
CN(CCS(C)(=O)=O)Cc1ccc(-c2ccc3ncnc(Nc4ccc(OCc5cccc(F)c5)c(Cl)c4)c3c2)o1	681 nM
CCN(c1ccccc1)S(=O)(=O)c1ccc(NC(=O)c2cc(-c3cc(C)ccc3O)n[nH]2)cc1	767 nM
O=C(CCc1cccnc1)Nc1ccc(-c2cccc(-c3nc4cc(F)ccc4[nH]3)c2)cc1	922 nM
NS(=O)(=O)c1cccc(Nc2nccc(-c3cnn4ncccc34)n2)c1	661 nM
COc1cccc(OC)c1OCCCOc1c(C)nc(N)nc1N	459 nM
CCCCCCCCCCN1C(=O)C2C(CCCCNC(C)=O)NC3(C(=O)N(Cc4ccc(C(C)(C)C)cc4)c4ccccc43)C2C1=O (centres undefined)	993 nM
CC(=O)Nc1nc(C(=O)Nc2ccc(-c3ccc(-c4nc5cccc(C)c5[nH]4)cc3)cc2)cs1	182 nM
O=C(/C=C/c1ccc(I)cc1)NCCCCCN1CCC(c2c[nH]c3ccc(O)cc23)CC1	773 nM
N=C(N)NN=Cc1c2ccc(Cl)cc2c(Cl)c2ccc(Cl)cc12	958 nM
O=C(Nc1ccc(Cl)c(Cl)c1)N1CCc2ccc(OCCCN3CCCCC3)cc2CC1	1520 nM
Cc1[nH]c(C)c(-c2ccc(-c3ccc(C(F)F)cc3)nc2)c(=O)c1Cl	241 nM
CC(C)(C)Nc1cc(C(=O)N[C@@H](Cc2ccccc2)[C@H](O)CNC2CCOCC2)cc(N2CCCCS2(=O)=O)c1	150 nM
CC(C)c1ccc(NC(=O)N[C@H]2CCN(CCCCCNC(=O)/C=C/c3ccc(Cl)c(Cl)c3)C2)cc1	710 nM
CC(C)c1ccc(CN2CCC(NC(=O)c3ccc(-c4cccc(Cl)c4)s3)CC2)cc1	1430 nM
CC(C)c1cn2c3c(cc(C(=O)N[C@@H](Cc4ccccc4)[C@H](O)CNC4CCOCC4)cc13)N(C)S(=O)(=O)CC2	54.5 nM
c1cncc(NCc2ccc(-c3cc4ccncc4cc3OC3CCNCC3)s2)c1	981 nM
O=C(c1ccc(Br)o1)N1N=C(c2cccs2)CC1c1ccc(Br)cc1 (centres undefined)	513 nM
O=C(C1CC1c1ccccc1)N(Cc1ccc(-c2ccc(CNCCc3ccccc3)cc2)cc1)C1CCNCC1 (centres undefined)	1110 nM
COc1cccc(C(=O)Nc2nc3c(s2)CCN(Cc2ccccc2N2CCNCC2)CC3)c1	888 nM

SMILES	XC50
O=C(Nc1ccc2nccc(N3CCN4CCC[C@H]4C3)c2c1)c1ccc(Cl)c(Cl)c1	340 nM
Cn1nc(-c2ccc(CNC3CCc4ccccc43)cc2)c2cnc(NCCCN3CCCC3)nc21 (centres undefined)	1110 nM
COc1ccc(C(=O)N2CCC3(CC2)C(=O)N(CC(=O)NCC2CCCCC2)CN3c2ccccc2)cc1	273 nM
COc1cc(F)c2ncc(Cl)c(CCN3CCC(NCc4ccc5c(c4)NC(=O)CO5)CC3)c2c1	227 nM
CN1CCN(Cc2cccc(-c3ccc4c(Nc5cc(O)c(Cl)cc5F)ccnc4c3)c2)CC1	770 nM
O=C(Nc1ccc(-c2nc3ccccc3[nH]2)cc1)C1CCCN(CC2CC2)C1 (centres undefined)	946 nM
CCC(C)c1ccc(NC(=O)C(C)c2ccc([N+](=O)[O-])cc2)cc1 (centres undefined)	176 nM
CC(C)N1CCN(c2ccc(OCCCCN3CCN(c4cccc(Cl)c4Cl)CC3)cc2Cl)CC1	1040 nM
O=S(=O)(NCCN1CCCC1)c1ccc(-c2cccc(CNCCc3cccs3)c2)s1	705 nM
CCCC(CNCc1cccc(OCC)c1)CNc1cc(=O)c2ccccc2[nH]1 (centres undefined)	855 nM
CC(C)CCNC(=N)Nc1ccc(OCCCCCOc2ccc(NC(=N)NCCC(C)C)cc2)cc1	1080 nM
O=C(/C=C/c1ccc(Cl)c(Cl)c1)NCCCCCN1CCC(NC(=O)Nc2cc(Cl)cc(Cl)c2)CC1	722 nM
Nc1nccc2ccc(-c3cccc4ncccc34)cc12	52.4 nM
COCCn1c(Sc2ncnc3sccc23)nc2ccccc21	879 nM
Cc1cc(OCCCN2CCC(NS(=O)(=O)c3ccc(Cl)c(Cl)c3)C2)c2ccccc2n1 (centres undefined)	1050 nM
CC(C)(C)CC(C)(C)c1ccc(O)c(C(=O)Nc2cccc([N+](=O)[O-])c2)c1	589 nM
c1ccc2c(c1)ncn2-c1ccnc(Nc2ccncc2)n1	646 nM
COc1ccc(OC(C)CNC(=O)c2cc([N+](=O)[O-])ccc2-c2ccc(OC)cc2)cc1 (centres undefined)	1150 nM
CCCn1cc2c(ccc3nc(N)nc(N)c32)n1	81.4 nM
O=C(NCCCN1CCCCC1)c1cccc(Nc2nccc(Nc3ccc(Oc4ccccc4)cc3)n2)c1	821 nM
CC(C)c1ccc(NC(=O)c2cccc(CN3CCCN(CC4CCCCC4)CC3)c2)cc1	710 nM
CC(C)C[C@H](NC(=O)c1ccc(OCCN2CCOCC2)cc1)C(=O)N[C@H](/C=N/NC(=O)OC(C)(C)C)CCc1ccccc1	162 nM
CCc1cc(OC)ccc1C1CCN(CCCCNC(=O)c2ccc(NC(=O)c3ccc(Cl)cc3)cc2)CC1	1070 nM
Cc1ccc(OC2CCN(c3ccc(C(=O)NC4CC4)cn3)CC2)cc1	1300 nM
CC1=C(C(=O)Nc2ccc(Cl)cc2)C(c2ccncc2)n2nc(C(F)(F)F)nc2N1 (centres undefined)	935 nM

SMILES	XC50
CCCCc1ccc(C(=O)Nc2ccc3nc(N4CCN(C)CC4)cc(C)c3c2)cc1	1100 nM
Cc1cccc2nc(-c3ccc(-c4ccc(NC(=O)C(C)CN(C)C)cc4)cc3)[nH]c12 (centres undefined)	681 nM
CCNc1cc(C(=O)N[C@@H](Cc2ccccc2)[C@H](O)CNCC(C)C)cc(N2CCCC2=O)c1	485 nM
CN(C)c1cc(C(=O)N[C@@H](Cc2ccccc2)[C@H](O)CNC2CCCCC2)cc2[nH]ccc12	1070 nM
Oc1c(C(Nc2ccccn2)c2ccco2)cc(Cl)c2cccnc12 (centres undefined)	1010 nM
COc1ccc(-c2c3c(=O)n(C)c(=O)n(C)c3c3nnc4ccccc4n23)cc1	991 nM
COc1ccc(Oc2ccc(-c3c(O)cc(C)nc3C)cc2)cc1	612 nM
Nc1nccc2ccc(OC3CCCCC3)cc12	602 nM
CCCc1cc(OC)c(CC2c3cccc(O)c3CCN2C)cc1OC (centres undefined)	305 nM
COc1cc2c(cc1OCCN1CCC(N)CC1)N(C(=O)/C=C/c1ccccc1Cl)CC2	1120 nM
O=C(Nc1ccc(-c2cccc(-c3nc4cc(F)ccc4[nH]3)c2)cc1)c1ccncc1	719 nM
Cc1ccc2nc(C)n(C3CCN(C(=O)Cc4ccccc4C)CC3)c2c1	243 nM
Cc1ccc2nc(C)cc(NC(=O)Nc3ccc(N(C)C)cc3)c2c1	541 nM
COc1ccc(Nc2ncc(C#N)c(Nc3ccccc3C(N)=O)n2)cc1N1CCN(C)CC1	136 nM
CN(CCN)Cc1ccc(-c2ccc(-c3nc4cc(C(F)(F)F)ccc4[nH]3)s2)cc1	607 nM
COc1ccccc1CNC(=O)c1nn(-c2ccc(Cl)cc2)c(=O)c2ccccc12	294 nM
CNCCCN(C)C(=O)Oc1c(Br)c(C)nc(C)c1-c1ccc(Oc2ccc(OC(F)(F)F)cc2)cc1	386 nM
CO/C(=C\C=C\c1cc2cc(Cl)c(Cl)cc2[nH]1)C(=O)NC1CCN(CCCc2ccccc2)CC1	767 nM
Clc1cccc(C=NN=c2cc[nH]c3ccccc23)c1	852 nM
CN(C)CCCN1CCN(Cc2ccc(-c3ccc(-c4nc5ccccc5[nH]4)s3)cc2)CC1	820 nM
O=C(NC1CCN(Cc2ccsc2)CC1)c1ccc(-c2cccc(C(F)(F)F)c2)s1	1440 nM
COc1ccc(CN2CCC(NCc3cccc(-n4ccnc4)c3)CC2)cc1	629 nM
CN(C)CCNC(=O)c1ccc(-c2ccc3c(Nc4ccccc4)c(C(N)=O)cnc3c2)cc1	728 nM
COc1ccc(-c2ccc(NC(=O)c3cccc(Cl)c3)cc2)cc1CN1CCCN(C)CC1	603 nM
